Laboratory results reported in US20070149562A1, “OXOPIPERIDINE DERIVATIVES, PREPARATION AND THERAPEUTIC USE THEREOF” (SANOFI-AVENTIS, priority 2004, published 2007).
Structures can show the parent of a compound that is named as a salt.

Tests used:
human MC3 receptor = target: T1, human MC3 receptor (Homo sapiens, UniProt P41968); test: Functional assay of agonist activity: cAMP formation; assay type: cell-based; details: CHO(dhfr-) cells expressing human MC3 receptor, 1 hour incubation, read-out: EC50 with respect to the MC3 receptor
T1 construct: expressed in transfected cells; host or cells: CHO(dhfr-)
Experimental: (§1) A functional assay is used to differentiate between the agonist activity and the antagonist activity. For this, the formation of cyclic adenosine monophosphate (cAMP) generated by activation of the MC3 receptor or of the MC4 receptor is assayed.
CHO(dhfr-) cells expressing the human MC3 receptor are seeded into MEM Eagle culture medium (Sigma) containing 10% of dialysed calf serum, 1% L-glutamine, 1% sodium pyruvate, 20 mg/500 ml L-proline, 0.3 mg/ml Geneticin and 0.5% PenStrep, these products being provided by Gibco/BR1, except for the dialysed calf serum (Cambrex) and the L-proline (Sigma).
(§2) The compounds to be tested (diluted in 10% DMSO), in an amount of 10 ul at a concentration of 10 times the final concentration, are added to the plates of cells (final volume=100 ul/well). After incubation for 1 hour (37° C., 5% CO2), the amount of cAMP is assayed using Tropix kits (Appelera) according to the supplier's documentation. The intrinsic activity of the compounds is calculated by comparing the stimulation of cAMP by these compounds to the stimulation induced by 30 nM of NDP MSH (maximum of 100%). The EC50 value for the compounds corresponds to the concentration which produces 50% of the maximum stimulation obtained with this compound.

human MC4 receptor [1] = target: T2, human MC4 receptor (Homo sapiens, UniProt P32245); test: as above; assay type: cell-based; details: CHO-K1 cells expressing human MC4 receptor, 1 hour incubation, read-out: EC50 with respect to the MC4 receptor
T2 construct: host or cells: CHO-K1
Experimental: as §1
CHO-K1 cells, expressing the human MC4 receptor at a moderate density (Euroscreen), are seeded into DMEM/Nutrient Mix F12 culture medium (Gibco/BR1) containing 10% of foetal calf serum, 0.5% sodium pyruvate, 1% L-glutamine, 1% non-essential amino acids, 200 mg/l hygromycin B and 0.5% PenStrep, these products being provided by Gibco/BR1, except the calf serum (Biowhittaker) and hygromycin B (Sigma).
as §2

human MC4 receptor [2] = target: T2, human MC4 receptor; test: Affinity assay: displacement of [125I]-[Nle4-D-Phe7]-α-MSH binding to cell membranes (SPA); details: membranes of CHO-K1 cells expressing human MC4 receptor; radioligand 100 pM; read-out: IC50 with respect to the MC4 receptor
Experimental: This affinity assay is carried out by measuring the binding of [^125I]-[Nle^4-D-Phe^7]-[…]-MSH to cell membranes. The displacement of this radioligand is used to identify inhibitors of the specific binding to recombinant melanocortin receptors.
For this assay, membranes prepared from CHO-K1 cells expressing the human MC4 receptor at high density (Euroscreen) or membranes, that were purchased (Perkin Elmer Life Sciences, Receptor Biology), of HEK-293 cells expressing hMC3 receptors were used. CHO-K1 cells transfected with the hMC4 receptor gene (Euroscreen) are seeded into DMEM/Nutrient Mix F12 culture medium containing 10% foetal calf serum (Biowhittaker), 1% sodium pyruvate, 1% L-glutamine, 1% non-essential amino acids, 0.4 mg/ml geneticin (G418) and 0.5% PenStrep, these products being provided by Gibco/BR1, except the calf serum. At 80% confluency, the cells are scraped off and the cell pellets are frozen at −80° C.
A tube of cells (approximately 70×10^6 cells) is thawed on ice and resuspended in 10 ml of binding buffer [25 mM HEPES, pH 7.0, 1 mM MgCl2, 1.5 mM CaCl2, 100 mM NaCl, 1 mM 1,10-phenanthroline and 1 tablet of Complete™ (protease inhibitor from Roche) in 50 ml of buffer]using a polytron for 20 seconds. The suspension is centrifuged for 20 min at 19 500 rpm at 4° C. The supernatant is discarded and the pellet is resuspended in 5 ml of binding buffer. The amount of proteins present in the sample is assayed using a Bradford test, and the concentration is adjusted to 3 ug/25 ul by dilution in binding buffer.
[^125I]-[Nle^4, D-Phe^7]-[…]-MSH is diluted in binding buffer+0.2% BSA. SPA beads (wheatgerm agglutinin polyvinyltoluene, Amersham Pharmacia Biotech) are hydrated in the binding buffer+0.2% BSA and are then mixed with the cell homogenate so as to obtain 3 μg of cell proteins and 250 ug of beads in 50 ul. […] The nonspecific binding is defined by NDP-DMSH at 10^-7 M. The total binding is measured by the number of counts per minute in the presence of the radioligand alone. […]

T1 sequence (P41968 whole entry): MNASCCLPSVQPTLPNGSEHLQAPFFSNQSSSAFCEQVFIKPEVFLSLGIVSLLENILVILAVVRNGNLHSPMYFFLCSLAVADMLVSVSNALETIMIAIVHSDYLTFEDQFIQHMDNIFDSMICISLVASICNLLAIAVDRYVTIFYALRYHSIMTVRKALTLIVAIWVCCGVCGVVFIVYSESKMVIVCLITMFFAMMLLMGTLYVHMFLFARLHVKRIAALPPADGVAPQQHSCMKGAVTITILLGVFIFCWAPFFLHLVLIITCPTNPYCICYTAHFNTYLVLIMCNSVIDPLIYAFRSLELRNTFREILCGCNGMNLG
T2 sequence (P32245 whole entry): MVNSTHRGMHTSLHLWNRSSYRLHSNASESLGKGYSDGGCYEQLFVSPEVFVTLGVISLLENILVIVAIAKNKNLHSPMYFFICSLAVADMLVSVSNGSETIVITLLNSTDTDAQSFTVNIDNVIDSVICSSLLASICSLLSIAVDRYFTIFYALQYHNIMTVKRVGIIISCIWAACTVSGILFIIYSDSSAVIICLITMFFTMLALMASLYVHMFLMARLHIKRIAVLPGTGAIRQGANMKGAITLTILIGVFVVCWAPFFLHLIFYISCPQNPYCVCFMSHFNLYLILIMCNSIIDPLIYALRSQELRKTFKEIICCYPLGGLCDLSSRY

SMILES | melting point [°C] | EC50 (human MC3 receptor) [nM] | EC50 (human MC4 receptor [1]) [nM] | IC50 (human MC4 receptor [2]) [nM]
O=C([C@@H](Cc1ccc(Cl)cc1)NC1CCNCC1)N1CCC(Cn2cncn2)(C2CCCCC2)CC1 (as salt: HCl) [Compound 1, N-{(1R)-1-(4-chlorobenzyl)-2-[4-cyclohexyl-4-(1H-1,2,4-triazol-1-ylmethyl)piperidin-1-yl]-2-oxoethyl}piperidin-4-amine] | 255 | – | – | –
N[C@H]1CC[C@@H](N[C@H](Cc2ccc(Cl)cc2)C(=O)N2CCC(Cn3cncn3)(C3CCCCC3)CC2)CC1 (as salt: HCl) [Compound 12, cis-N-{(1R)-1-(4-chlorobenzyl)-2-[4-cyclohexyl-4-(1H-1,2,4-triazol-1-ylmethyl)piperidin-1-yl]-2-oxoethyl}cyclohexane-1,4-diamine] | 159 | – | – | –
CS(=O)(=O)N1CCC(N[C@H](Cc2ccc(Cl)cc2)C(=O)N2CCC(Cn3cncn3)(C3CCCCC3)CC2)CC1 (as salt: HCl) [Compound 54, N-{(1R)-1-(4-chlorobenzyl)-2-[4-cyclo-hexyl-4-(1H-1,2,4-triazol-1-ylmethyl)piperidin-1-yl]-2-oxoethyl}-1-(methylsulphonyl)piperidin-4-amine] | > 200 | – | – | –
NCC(=O)N[C@H]1CC[C@@H](N[C@H](Cc2ccc(Cl)cc2)C(=O)N2CCC(Cn3cncn3)(C3CCCCC3)CC2)CC1 (as salt: HCl) [Compound 116, N-[cis-4-({(1R)-1-(4-chlorobenzyl)-2-[4-cyclohexyl-4-(1H-1,2,4-triazol-1-ylmethyl)piperidin-1-yl]-2-oxoethyl}amino)cyclohexyl]glycinamide] | 128 | – | – | –
O=C([C@@H](Cc1ccc(Cl)cc1)NC1CCNCC1)N1CCC(Cn2cncn2)(C2CCCCC2)CC1 [Compound 1, N-{(1R)-1-(4-chlorobenzyl)-2-[4-cyclohexyl-4-(1H-1,2,4-triazol-1-ylmethyl)piperidin-1-yl]-2-oxoethyl}piperidin-4-amine] | – | 200 | 50 | 250
O=C([C@@H](Cc1ccc(Cl)cc1)NC1CCOCC1)N1CCC(Cn2cncn2)(C2CCCCC2)CC1 [Compound 2, N-{(1R)-1-(4-chlorobenzyl)-2-[4-cyclohexyl-4-(1H-1,2,4-triazol-1-ylmethyl)piperidin-1-yl]-2-oxoethyl}tetrahydro-2H-pyran-4-amine] | 75 | 110 | 60 | 570
N[C@H]1CC[C@@H](N[C@H](Cc2ccc(Cl)cc2)C(=O)N2CCC(Cn3cncn3)(C3CCCCC3)CC2)CC1 [Compound 12, cis-N-{(1R)-1-(4-chlorobenzyl)-2-[4-cyclohexyl-4-(1H-1,2,4-triazol-1-ylmethyl)piperidin-1-yl]-2-oxoethyl}cyclohexane-1,4-diamine] | – | 100 | 20 | 200
